# Literature values in patent US20030225129A1, “Polymorphs of clopidogrel hydrogensulfate” (priority 2002, published 2003).
# Legend:
# [1] = in vivo
# platelet activity = conditions: after administration
smiles,measurement,setting,value
"COC(=O)[C@H](c1ccccc1Cl)N1CCc2sccc2C1 [clopidogrel, methyl (+)-(S)-∝-(o-chlorophenyl)-6,7-dihydrothieno[3,2-c]pyridine-5(4H)-acetate]",gastrointestinal bleeding relative to aspirin,[1],much less gastrointestinal bleeding than aspirin
same,duration of antiplatelet activity,platelet activity,up to ten days after administration
same,effectiveness relative to aspirin at stated dosages,platelet aggregation; 75 mg of base equivalent versus 325 mg of aspirin,more effective
same,effectiveness in blocking platelet aggregation relative to aspirin,"platelet aggregation; versus aspirin, even at much lower dosage",more effective in blocking platelet aggregation than aspirin
